Test results taken from PMC6934184, “Selective DNA-PKcs inhibition extends the therapeutic index of localized radiotherapy and chemotherapy” (The Journal of Clinical Investigation, 2019).

Molecular target: T1, FGFR3 (Homo sapiens, UniProt P22607)
T1 construct: purchased Thermo Fisher Scientific (Life Technologies) SelectScreen
Assay: SelectScreen Z'LYTE
Type: biochemical
Procedure, shortened: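 SelectScreen broad panel; activity (Z'LYTE, Adapta) plus binding formats. ATP: Km app for CSF1R Z'LYTE; 10 for CAMK1 Adapta. Readout = % per kinase.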

T1 sequence (P22607 23-806): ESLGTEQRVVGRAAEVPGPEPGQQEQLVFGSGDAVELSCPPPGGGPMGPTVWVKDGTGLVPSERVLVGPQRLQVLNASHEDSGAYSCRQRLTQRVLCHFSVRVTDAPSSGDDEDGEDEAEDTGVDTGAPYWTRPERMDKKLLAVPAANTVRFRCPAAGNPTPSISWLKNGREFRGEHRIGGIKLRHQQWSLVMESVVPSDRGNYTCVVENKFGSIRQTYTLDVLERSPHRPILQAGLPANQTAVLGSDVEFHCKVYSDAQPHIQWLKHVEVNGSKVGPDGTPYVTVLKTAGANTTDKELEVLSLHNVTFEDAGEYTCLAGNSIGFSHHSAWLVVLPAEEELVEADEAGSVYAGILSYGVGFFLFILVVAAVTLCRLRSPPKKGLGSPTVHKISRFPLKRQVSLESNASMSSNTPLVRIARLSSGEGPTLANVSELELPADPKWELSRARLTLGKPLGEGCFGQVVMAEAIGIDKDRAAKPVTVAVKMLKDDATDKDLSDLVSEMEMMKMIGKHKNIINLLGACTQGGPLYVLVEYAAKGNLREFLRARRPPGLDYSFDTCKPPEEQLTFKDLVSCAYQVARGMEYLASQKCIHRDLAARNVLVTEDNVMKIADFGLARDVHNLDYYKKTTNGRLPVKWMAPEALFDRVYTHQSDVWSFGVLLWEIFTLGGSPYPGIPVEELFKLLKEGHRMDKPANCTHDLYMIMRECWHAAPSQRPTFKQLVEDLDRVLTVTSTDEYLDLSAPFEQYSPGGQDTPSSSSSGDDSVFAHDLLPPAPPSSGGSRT

CN(C(=O)CN1CCOCC1)c1ccc2sc3c(-c4cccc5c(=O)cc(N6CC7CCC(C6)O7)oc45)cccc3c2c1 [NU5455]
inhibition at 1 µM: 0.9%
